# Paper PMC6934184, “Selective DNA-PKcs inhibition extends the therapeutic index of localized radiotherapy and chemotherapy” (The Journal of Clinical Investigation, 2019)
# Molecular target: T1, LATS1 (Homo sapiens, UniProt O95835)
# T1 construct: purchased Thermo Fisher Scientific (Life Technologies) SelectScreen
# Experiment: SelectScreen LanthaScreen
# Format: binding
# Details: read-out: % displacement
# How it was run: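 Percent values come from Thermo SelectScreen profiling of NU5455, combining activity and binding assays. CSF1R was run in Z'LYTE format at Km app ATP, and CAMK1 in Adapta format with ATP listed at 10.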
# T1 sequence (O95835 whole entry): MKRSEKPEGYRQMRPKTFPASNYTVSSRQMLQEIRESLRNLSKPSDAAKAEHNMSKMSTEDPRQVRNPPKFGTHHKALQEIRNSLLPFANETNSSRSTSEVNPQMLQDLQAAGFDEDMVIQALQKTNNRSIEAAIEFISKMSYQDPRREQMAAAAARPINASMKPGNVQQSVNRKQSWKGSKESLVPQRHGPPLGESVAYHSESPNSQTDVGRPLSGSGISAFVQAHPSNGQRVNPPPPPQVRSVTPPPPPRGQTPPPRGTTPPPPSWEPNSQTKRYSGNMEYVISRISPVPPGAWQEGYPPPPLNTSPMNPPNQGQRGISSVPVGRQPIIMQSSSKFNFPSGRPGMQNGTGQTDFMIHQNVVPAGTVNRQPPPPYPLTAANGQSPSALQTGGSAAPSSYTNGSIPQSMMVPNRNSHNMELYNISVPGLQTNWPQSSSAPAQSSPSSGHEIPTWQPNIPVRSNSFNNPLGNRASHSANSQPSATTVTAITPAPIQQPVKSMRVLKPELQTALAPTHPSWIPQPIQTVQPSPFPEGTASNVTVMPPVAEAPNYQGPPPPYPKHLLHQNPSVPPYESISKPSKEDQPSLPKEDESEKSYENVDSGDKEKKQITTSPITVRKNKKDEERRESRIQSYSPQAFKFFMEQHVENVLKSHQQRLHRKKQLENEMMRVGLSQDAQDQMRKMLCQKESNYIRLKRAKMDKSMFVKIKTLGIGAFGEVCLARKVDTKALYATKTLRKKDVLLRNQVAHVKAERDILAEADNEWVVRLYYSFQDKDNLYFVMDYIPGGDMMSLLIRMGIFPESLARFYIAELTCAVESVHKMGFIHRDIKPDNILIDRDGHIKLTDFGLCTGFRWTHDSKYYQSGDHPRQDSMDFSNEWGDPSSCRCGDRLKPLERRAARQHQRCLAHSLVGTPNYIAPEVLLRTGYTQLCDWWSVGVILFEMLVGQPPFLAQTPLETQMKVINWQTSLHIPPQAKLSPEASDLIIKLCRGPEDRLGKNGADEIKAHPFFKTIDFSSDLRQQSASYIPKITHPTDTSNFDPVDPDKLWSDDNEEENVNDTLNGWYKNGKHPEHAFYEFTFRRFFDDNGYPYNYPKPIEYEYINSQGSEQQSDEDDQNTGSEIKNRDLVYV
smiles,measurement,value
CN(C(=O)CN1CCOCC1)c1ccc2sc3c(-c4cccc5c(=O)cc(N6CC7CCC(C6)O7)oc45)cccc3c2c1 [NU5455],inhibition at 1 µM,-1.3%
